Each block holds one compound with its values, some of them ahead of it.
What was measured:
[1] = system: Human immunodeficiency virus 1; experiment: Antiviral activity against HIV-1 infected in human MT4 cells assessed as inhibition of viral growth; format: functional, organism-based; settings: Human immunodeficiency virus 1, MT4
[2] = Oral bioavailability in Sprague-Dawley rat; format: ADME, organism-based; settings: in vivo
[3] = Lipophilicity, logP of the compound; format: physicochemical; settings: octanol/water
[4] = Oral bioavailability in Beagle dog; format: ADME, organism-based, Canis lupus familiaris; settings: in vivo
[5] = Water solubility of the compound at pH 7.4 by HPLC analysis; format: physicochemical
[6] = Inhibition of ADP-induced platelet aggregation in New Zealand White rabbit; format: functional, Oryctolagus cuniculus
[7] = Oral bioavailability in dog at 0.03 mg/kg; format: ADME, organism-based, Canis lupus familiaris; settings: in vivo
[8] = Oral bioavailability in rat; format: ADME, organism-based; settings: in vivo
[9] = Oral bioavailability in Sprague-Dawley rat at 10 mg/kg measured for 24 hrs by LC-MS/MS analysis; format: ADME, organism-based; settings: in vivo
[10] = Permeability across apical to basolateral side in human Caco-2 cells; format: ADME, cell-based; settings: read-out: permeability
[11] = Toxicity in Wistar rat assessed as effective dose; settings: in vivo, 6 h
[12] = Half life in Wistar rat at 20 mg/kg, po by LC-MS/MS analysis; format: ADME, organism-based; settings: in vivo
[13] = Cmax in human at 20 mg/kg, po by LC-MS/MS analysis; format: ADME, organism-based; settings: in vivo
[14] = AUC in human at 20 mg/kg, po by LC-MS/MS analysis; format: ADME, organism-based; settings: in vivo

- logP ([3]; read-out: logP): 1.72
SMILES: Cc1oc(=O)oc1COC(=O)CC[C@H](NC(=O)c1ccc(CCc2c[nH]c3[nH]c(N)nc(=O)c23)cc1)C(=O)O

- logP ([3]; read-out: logP): 2.64
SMILES: Cc1oc(=O)oc1COC(=O)CC[C@H](NC(=O)c1ccc(CCc2c[nH]c3[nH]c(N)nc(=O)c23)cc1)C(=O)OCc1oc(=O)oc1C

- bioavailability [4]: 92.1%
SMILES: Cc1oc(=O)oc1COC(=O)[C@@](C)(N)Cc1ccc(O)c(O)c1

- solubility [5]: > 200 µg/mL
SMILES: Cc1oc(=O)oc1COC(=O)N1CC[C@@H](N2CC/C(=C\C3=C(C(=O)O)N4C(=O)[C@@H](NC(=O)/C(=N\O)c5nsc(N)n5)[C@H]4SC3)C2=O)C1

- bioavailability [7]: 23%
SMILES: Cc1oc(=O)oc1COC(=O)N1CCC(CC[C@@H]2CCCN(CC(=O)N[C@H](C)CC(=O)O)C2=O)CC1
- inhibition (INH) [6]: 100%

- bioavailability [2]: 12%
SMILES: C=C(c1ccc(C(=O)OCc2oc(=O)oc2C)cc1)c1cc2c(cc1C)C(C)(C)CCC2(C)C

- Papp A→B [10]: 2.8 ×10⁻⁶ cm/s
SMILES: CCOc1nc2cccc(C(=O)OCc3oc(=O)oc3C)c2n1Cc1ccc(-c2ccccc2-c2noc(=O)[nH]2)cc1 [AZILSARTAN MEDOXOMIL]

- logP [3]: 0.75
SMILES: Nc1nc2[nH]cc(CCc3ccc(C(=O)N[C@@H](CCC(=O)O)C(=O)O)cc3)c2c(=O)[nH]1 [PEMETREXED]

The next lines start with the compound.

SMILES: Cc1oc(=O)oc1COP(=O)(O)COCCn1cnc2c(N)ncnc21
- EC50 [1]: 10.6 µM

SMILES: C=C(c1ccc(C(=O)OCC)cc1)c1cc2c(cc1C)C(C)(C)CCC2(C)C
- bioavailability [2]: 35%

SMILES: Nc1ncnc2c1ncn2CCOCP(=O)(O)O [ADEFOVIR]
- EC50 [1]: 10.4 µM

SMILES: COC(=O)N[C@H](C(=O)N[C@@H](Cc1ccccc1)[C@@H](O)CN(Cc1ccc(-c2ccccn2)cc1)NC(=O)[C@@H](NC(=O)OC)C(C)(C)C)C(C)(C)C [ATAZANAVIR]
- F [8]: 1%
- bioavailability [9]: 20%

SMILES: CCOc1nc2cccc(C(=O)O)c2n1Cc1ccc(-c2ccccc2-c2noc(=O)[nH]2)cc1 [AZILSARTAN]
- Papp A→B [10]: 0.636 ×10⁻⁶ cm/s

SMILES: C=C(c1ccc(C(=O)O)cc1)c1cc2c(cc1C)C(C)(C)CCC2(C)C [BEXAROTENE]
- bioavailability [2]: 75%

SMILES: CCCCc1nc(Cl)c(C(=O)O)n1Cc1ccc(-c2ccccc2-c2nn[nH]n2)cc1 [CARBOXYLIC ACID METABOLITE]
- ED50 [11]: 9.05 µg/kg

SMILES: C[C@](N)(Cc1ccc(O)c(O)c1)C(=O)O [METHYLDOPA]
- bioavailability [4]: 94.2%

SMILES: CCCc1nc(C(C)(C)O)c(C(=O)O)n1Cc1ccc(-c2ccccc2-c2nnn[nH]2)cc1 [OLMESARTAN]
- half-life [12]: 30 min

SMILES: CC1Sc2c(C(=O)O)c(=O)c3cc(F)c(N4CCNCC4)cc3n21 (stereo unspecified) [ULIFLOXACIN]
- Cmax [13]: 630 ng/mL
- AUC [14]: 22200 ng·h/mL
